# Results as given in article PMC11381239, “Endocannabinoid regulation of inward rectifier potassium (Kir) channels” (Frontiers in Pharmacology, 2024).
# Numbering of substitutions follows the chain as printed. Read-outs that look alike come from different tables or passages of the source.
# How the values were obtained:
# Assay in all cases: two-electrode voltage clamp, slope conductance Gmax
# Format in all cases: cell-based
# Kir2.1 = molecular target: T1, Kir2.1 (Homo sapiens, UniProt P63252); details: for Emax (%): maximal increase in Gmax, vehicle (ethanol) control in same table
# T1 construct: gene KCNJ2; full-length human Kir2.1 cDNA in pcDNA3.1, RNA expressed in Xenopus laevis oocytes; homotetramer
# T1 sequence (P63252 1-427): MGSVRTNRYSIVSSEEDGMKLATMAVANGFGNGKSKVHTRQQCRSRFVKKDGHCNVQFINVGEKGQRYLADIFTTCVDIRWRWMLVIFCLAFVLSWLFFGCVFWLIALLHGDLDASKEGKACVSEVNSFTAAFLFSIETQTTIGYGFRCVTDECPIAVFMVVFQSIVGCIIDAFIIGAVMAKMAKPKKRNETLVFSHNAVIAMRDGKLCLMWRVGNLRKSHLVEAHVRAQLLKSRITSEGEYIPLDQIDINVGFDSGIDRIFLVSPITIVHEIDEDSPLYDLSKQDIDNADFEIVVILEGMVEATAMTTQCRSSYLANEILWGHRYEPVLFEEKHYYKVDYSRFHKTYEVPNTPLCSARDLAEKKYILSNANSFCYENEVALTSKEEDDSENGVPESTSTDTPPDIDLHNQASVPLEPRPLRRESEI
# From the text: two-electrode voltage clamp, slope conductance Gmax on Kir2.1
# WT:G144S Kir2.1 = molecular target: T2, WT:G144S Kir2.1 (Homo sapiens, UniProt P63252, G144S)
# T2 construct: gene KCNJ2; WT Kir2.1 co-expressed 1:1 with LQT7 mutant G144S Kir2.1 in Xenopus laevis oocytes; mixed tetramers, exact subunit stoichiometry not fixed
# T2 sequence (P63252 1-427): T1 sequence (P63252 1-427)
# T2 sequence (P63252 1-427 G144S): T1 sequence (P63252 1-427) with G144S
# Kir4.1 = molecular target: T3, Kir4.1 (Rattus norvegicus, UniProt P49655)
# T3 construct: gene Kcnj10; full-length rat Kir4.1 cDNA in pcDNA3.1, RNA expressed in Xenopus laevis oocytes; homotetramer
# T3 sequence (P49655 1-379): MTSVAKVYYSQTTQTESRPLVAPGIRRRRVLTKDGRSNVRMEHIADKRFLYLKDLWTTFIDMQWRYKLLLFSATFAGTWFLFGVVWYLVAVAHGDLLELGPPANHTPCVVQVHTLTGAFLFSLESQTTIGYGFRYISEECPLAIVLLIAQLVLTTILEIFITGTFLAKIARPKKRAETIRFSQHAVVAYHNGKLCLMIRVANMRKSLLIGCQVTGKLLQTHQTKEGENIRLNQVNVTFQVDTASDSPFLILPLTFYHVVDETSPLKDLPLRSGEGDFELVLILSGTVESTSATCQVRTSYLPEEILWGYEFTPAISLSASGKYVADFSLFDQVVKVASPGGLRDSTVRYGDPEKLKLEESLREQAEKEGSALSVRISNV
# From the text: two-electrode voltage clamp, slope conductance Gmax on Kir4.1
# [1] = 89 mM KCl bath, pH 7.4, room temperature
Compound,EC50 (Kir2.1) [µM],also measured
CCCCC/C=C\C/C=C\C/C=C\C/C=C\CCCC(=O)OCC(O)CO (stereo not drawn) [1-AG],20 ± 0.9,
CCCCC/C=C\C/C=C\C/C=C\C/C=C\CCCC(=O)OC(CO)CO [2-AG],25.5 ± 1.1,
CCCCC/C=C\C/C=C\CCCCCCCC(=O)OC(CO)CO [2-LG],,Emax (%) (Kir2.1; [1]): 5.4 ± 0.3%
CCCCCCCCCCCCCCCC(=O)OC(CO)CO [2-PG],12.7 ± 2,EC50 (WT:G144S Kir2.1): 11.7 ± 1 µM; EC50 (Kir4.1): 12.4 ± 0.7 µM
CCCCC/C=C\C/C=C\C/C=C\C/C=C\CCCC(=O)NCCO [AEA],,Emax (%) (Kir2.1; [1]): 5.3 ± 1.3%
CCCCC/C=C\C/C=C\C/C=C\C/C=C\CCCC(=O)N[C@@H](CO)C(=O)O [AS],,Emax (%) (Kir2.1; [1]): 1.0 ± 0.1%
CCCCCCCCCCCCCCCCCCCC(=O)NCCO [ArEA],12.6 ± 4.1,EC50 (WT:G144S Kir2.1): 30.7 ± 3.4 µM; EC50 (Kir4.1): 4.5 ± 3.9 µM
CCCCC/C=C\C/C=C\C/C=C\C/C=C\CCCCCC(=O)NCCO [DEA],32 ± 3.9,
CCCCC/C=C\C/C=C\CCCCCCCC(=O)NCCO [LEA],29 ± 1,
CCCCC/C=C\C/C=C\C/C=C\C/C=C\CCCC(=O)NCC(=O)O [NAGly],27.7 ± 2.8,
CCCCCCCC/C=C\CCCCCCCCCCCCCC(=O)NCCO [NEA],23.3 ± 2.1,
CCCCCCCC/C=C\CCCCCCCC(=O)NCCO [OEA],9.2 ± 0.9,
CCCCCC/C=C\CCCCCCCC(=O)NCCO [POEA],9.3 ± 0.7,
CCCCCCCCCCCCCCCCCC(=O)NCCO [SEA],10.2 ± 4.9,
CC/C=C\C/C=C\C/C=C\CCCCCCCC(=O)NCCO [αLnEA],24.5 ± 4.2,
CCCCC/C=C\C/C=C\C/C=C\CCCCC(=O)NCCO [ϒLnEA],36.8 ± 3.8,
oxy-AEA,,"EC50 (Kir2.1; activation, 89 mM KCl bath, pH 7.4, room temperature, mode: indirect via membrane according to authors): 25.3 ± 1.1 µM"
